One series relates to MDA-MB-231 cells. In words: Reactive oxygen species detection (DCF-DA, flow cytometry). The format is cell-based, human. To be noted: MDA-MB-231, 8 h. Here is the method:
DCF-DA is highly fluorescent and can label ROS for quantitative assessment using flow cytometer with excitation/emission at 485 nm/535 nm. To harvest and collect adherent and suspended cells, we first collected suspended cells from supernatant by centrifuging at 3000 rpm for 5 min at 4 °C and then adding trypsin to detach these adherent cells in the 6-well plate, followed by removing suspended cells via centrifugation. Both cell pellets after centrifugation were collected and re-suspended in PBS for subsequent quantitative analysis of ROS productions from cells treated either with CDDP or TFBPC using flow cytometer by gating the positive area in the histogram.
On the technique in general: A flow cytometer gives signals particle by particle.

Series [1] can be described thus: HE staining of major organs (CDX model). The format is in vivo, mice. Particulars: xenograft model. An excerpt: Formalin-fixed and paraffin-embedded 4 μm sections of tumor and organs from cell-bearing xenograft models were stained in hematoxylin and eosin to provide an overall morphology of tissues. Tumor sections were dewaxed with UltraClear™ (J.T.Baker, Phillipsburg, NJ, USA), rehydrated in a descending series of alcohol and water and had antigens unmasked in pH 6 or pH 9 Epitope Retrieval Solution (Leica Biosystems Inc., Wetzlar, Germany) in a microwave pressure cooker. […] VisUCyte HRP Polymer Antibody against rabbit IgG (VC003-025; R&D Systems, Minneapolis, MN, USA) and mouse IgG (VC001-025; R&D Systems, Minneapolis, MN, USA) were targeted to primary antibodies. Liquid DAB+ system from Agilent Technologies (Santa Clara, CA, USA) was applied as a chromogen for visualizing. Slides were mounted after hematoxylin counterstaining. All images were scanned using Motic EasyScan Pro 6 pathology slide scanner (Motic China Group Co., Ltd., Hong Kong, China).

Molecules are shown by their SMILES.

Take `FC(F)C(F)(F)COCc1ccnc(-c2cc(COCC(F)(F)C(F)F)ccn2)c1.[Cl][Pt][Cl]` [TFBPC]: the ROS production entry in the series on MDA-MB-231 cells is listed as “apparent increase in ROS production”. Also, the “pathophysiological changes in heart, kidneys, liver, lungs and spleen (HE staining)” value in series [1] is given as “No obvious pathophysiological changes”.

For the origin of these results see paper PMC9031226, “Preclinical Therapeutic Assessment of a New Chemotherapeutics [Dichloro(4,4’-Bis(2,2,3,3-Tetrafluoropropoxy) Methyl)-2,2’-Bipryridine) Platinum] in an Orthotopic Patient-Derived Xenograft Model of Triple-Negative Breast Cancers” (Pharmaceutics, 2022).
